Measured values from patent US11638427B2, “Methods and compositions for altering secondary metabolites in plants” (Impello Biosciences, Inc, priority 2020, dated 2023).

Legend:
[1] = test system: high-CBD hemp variety Cherry; test: Low-volume drone foliar applications of MeJA or MDJ on field grown high-CBD hemp, cannabinoid and terpene analysis; assay type: in vivo, Cannabis spp.; conditions: about 2 gallons per acre, at harvest; for increase in the ratio of CBD:THC compared to the Control group / alpha bisabolol change compared to the Control group: 7.5 mM; for increase in the ratio of CBD:THC compared to the Control group: morning applications about every 14 days
Excerpt: In previous foliar application experiments, plants were sprayed until the leaves were dripping. In order to assess the plant physiological response to low-volume foliar applications of two jasmonate elicitors, methyl jasmonate (MeJA) and methyl dihydro-jasmonate (MDJ), an outdoor experiment on field grown, high-CBD hemp was designed and performed during the summer of 2019 using an unmanned aerial drone as the application device. A single high-CBD hemp variety, “Cherry” (CBDRx, Longmont, Colo.) was used in an organic field plot in Pueblo, Colo., which was subdivided into four spatially separated quadrants of approximately 0.5 acres each as determined by drone and GPS mapping. Each 0.5-acre quadrant was assigned a treatment group, and the middle area of the entire plot, approximately 1 acre in area, was used as a “control” section of the field. Plants in the Control group received sprays of water and TWEEN®-20 only, identical to the treatment groups except for the exclusion of any jasmonate (i.e., [0 mM] MeJA and MDJ) active ingredients. MeJA and MDJ were applied at approximately 2 gallons per acre. In comparison, previous foliar applications wherein the plant was sprayed until the leaves dripped would equate to between 50-100 gallons per acre.
Treatments were separated into such “morning” and “evening” applications in an attempt to determine if the time of day influenced the plant response to the treatments. The four treatment groups were as follows: TIM=[7.5 mM] MDJ foliar applications in the morning; TIE=[7.5 mM] MDJ foliar applications in the evening; T2M=[7.5 mM] MeJA foliar applications in the morning; T2E [7.5 mM] MeJA foliar applications in the evening. All treatment groups were prepared the day of the application, and all applications were made successively with the same drone device. To reduce potential cross-contamination of the drone sprayer equipment, an acetic acid solution (5%) was run through the applicator equipment between each treatment application and control spray application, followed by plain water as a final rinse.
Plants were planted and allowed to grow in the normal fashion until the onset of flowering, which occurred around Jul. 25, 2019. At that point, foliar applications of the treatment were made approximately every 14 days with adjustments to the schedule as needed to avoid applying treatments on days with high winds, rain, or other suboptimal conditions for drone flight or treatment applications. Approximately every 14 days during the flowering cycle, flower samples from three randomly selected plants in each experimental group were taken, dried, and stored for analytical testing; however, the focus of this study was to determine the effect of the treatment groups versus the control group at harvest. Final flower samples were taken from 10 randomly selected plants in each experimental group on Sep. 12, 2019, labelled accordingly, dried, and sent to a third part commercial cannabis testing lab (Pro Verde, Milford, Mass.) for chemical analysis of the cannabinoids and terpene content individually using liquid chromatography (LC) and headspace gas chromatography (HS-GC), respectively. All samples were harvested on the day of a scheduled treatment prior to treatment.
Statistical analysis of the quantitative terpene data from plant samples taken at harvest was performed using R statistical software and corrected post-hoc using Tukey HSD method. For cannabinoid data from the same plant samples, ANOVA analysis was performed in Microsoft Excel with Tukey HSD post-hoc corrections.

[2] = test system: hemp clones cv. Cherry in the vegetative stage; test: Root drench of MeJA or MDJ, phytotoxicity; assay type: in vivo, Cannabis spp.; conditions: for plants deceased in 72 hours: 250 mL, n=4; for phytotoxicity to plants in the vegetative stage: root drench, concentrations above 10 mM, within 72 hours
Method: To investigate if higher concentrations of jasmonate elicitors would be tolerated in cannabis by root drench, four different concentrations, [7.5 mM], [10 mM], [15 mM] and [20 mM] were applied to hemp clones (n=4 per treatment group, cv.: Cherry, CBDRx) in the vegetative stage. Treatment concentrations were prepared from methyl dihydrojasmonate (MDJ, TCI, CAS No.: 24851-98-7) and methyl Jasmonate (MeJA, TCI, CAS No.: […]) with 1% TWEEN®-20 added (VWR, CAS No.: […]).
The roots of each clone in each treatment group were treated with 250 mL of each compound once per week. Plants were grown under a total of 12 Boost (Thrive Agritech, NY) 130-watt LED lights set to 18L: 6D photoperiod during the vegetative phase (2 weeks) or until phytotoxicity observed.

seedling mold = test: Fungal plug growth on jasmonate-infused PDA plates; assay type: cell-based, Trichoderma ghanense; conditions: for seedling mold growth: 1 mM, 4.25 mM, 10 mM in PDA, 72 hours post inoculation
Method: (§1) MDJ (TCI, CAS No.: 24851-98-7) and CJ were infused into potato dextrose agar (PDA, VWR Cat No.: 90003-494) petri dishes (100×15 mm VWR, Cat No: 25384-094) at concentrations ranging from 1 mM, 4.25 mM, and 10 mM. Each treatment was prepared using a technical grade stock solution of pure chemical (CJ or MDJ) diluted with TWEEN®-20 (VWR, CAS No.: […]). Culturable oyster mushroom and seedling mold served to create fungal mycelial plugs using a sterile 1 mL pipette tip (Eppendorf, Cat No.: 022491458) held upside down. The tips were used to make circle excisions (i.e., fungal plugs) from a mycelial mat grown on PDA with no biochemical infusions. Fungal pugs were then transferred to PDA infused with varying concentrations of CJ or MDJ, and control plates (no CJ or MDJ infusion) to monitor fungal growth at room temperature over time.
To compare the efficacy of MDJ and MeJA at inhibiting the same seedling mold as used in the experiment above, a second experiment was conducted using PDA plates infused with either MDJ or MeJA at different concentrations. All plates were generated and inoculated as described above and incubated at room temperature under identical conditions. Shown in FIGS. 9A-9C are plates of seedling mold 72 hours post fungal inoculation. Control plates are shown on the top row, followed by concentrations of MeJA (left) and MDJ (right) in duplicate at 1 mM (FIG. 9A), 4.25 mM (FIG. 9B), and 10 mM (FIG. 9C). […] Subsequent sequence analysis identified the “seedling mold” as Trichoderma ghanense.

[3] = test system: Cladosporium cladosporioides; test: Mold growth on jasmonate-infused plates, mold isolated from tomato; assay type: cell-based; conditions: various concentrations in plates
Method: as §1
Based on the above results in Cannabis spp., additional fungi from various crops was sampled and tested. Plates comprising various concentrations of MDJ or MJ were prepared as described above.

| SMILES | increase in the ratio of CBD:THC compared to the Control group [1] | alpha bisabolol change compared to the Control group [1] | alpha-humulene increase compared to the Control group ([1]; Treatment 1, 7.5 mM) | beta-caryophyllene increase compared to the Control group ([1]; Treatment 1, 7.5 mM) | guaiol increase compared to the Control group ([1]; Treatment 1, 7.5 mM) | trans-nerolidol increase compared to the Control group ([1]; Treatment 1, 7.5 mM) | plants deceased in 72 hours ([2]; root drench 10 mM) | plants deceased in 72 hours ([2]; root drench 15 mM) | plants deceased in 72 hours ([2]; root drench 20 mM) | phytotoxicity to plants in the vegetative stage [2] | seedling mold growth (seedling mold) | seedling mold growth compared to control (seedling mold; all concentrations (1 mM, 4.25 mM, 10 mM) in PDA, 72 hours and 10 days) | efficacy at inhibiting seedling mold, MDJ compared with MeJA (seedling mold; at the 1 mM concentration, 72 hours) | growth of mold isolated from tomato [3] |
| --- | --- | --- | --- | --- | --- | --- | --- | --- | --- | --- | --- | --- | --- | --- |
| CCCCCC1C(=O)CCC1CC(=O)OC (stereo not drawn) [MDJ, methyl dihydrojasmonate] | 2.53% | 17.2% | 3.15% | 3.3% | 5.66% | 66.66% | three out of four | all four | all four | phytotoxic | inhibited | showed inhibition | more effective | effective at preventing the growth |
| CC/C=C\C[C@H]1C(=O)CC[C@@H]1CC(=O)OC [MeJA, Methyl Jasmonate] | 1.76% | decreased |  |  |  |  |  | three out of four | three out of four | phytotoxic | inhibited |  |  | effective at preventing the growth |
